In PubChem BioAssay (NCI):
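Each compound was tested at five concentrations against cells in 96-well plates for 48 hours. The concentration for full growth arrest is given as TGI.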

How the values were obtained:
Assay in all cases: inhibition of tumour cell growth, NCI panel, 48 h
786-0 renal = system: 786-0 renal
A498 renal = system: A498 renal
A549 NSCLC = system: A549 NSCLC
ACHN renal = system: ACHN renal
BT-549 breast = system: BT-549 breast
CAKI-1 renal = system: CAKI-1 renal
CCRF-CEM leukemia = system: CCRF-CEM leukemia
COLO 205 colon = system: COLO 205 colon
DU-145 prostate = system: DU-145 prostate
EKVX NSCLC = system: EKVX NSCLC
HCT-116 colon = system: HCT-116 colon
HCT-15 colon = system: HCT-15 colon
HOP-62 NSCLC = system: HOP-62 NSCLC
HOP-92 NSCLC = system: HOP-92 NSCLC
HS 578T breast = system: HS 578T breast
HT29 colon = system: HT29 colon
IGROV1 ovarian = system: IGROV1 ovarian
KM12 colon = system: KM12 colon
LOX IMVI melanoma = system: LOX IMVI melanoma
M14 melanoma = system: M14 melanoma
MALME-3M melanoma = system: MALME-3M melanoma
MDA-MB-231 breast = system: MDA-MB-231 breast
MDA-MB-435 = system: MDA-MB-435
MDA-N = system: MDA-N
MOLT-4 leukemia = system: MOLT-4 leukemia
NCI-H23 lung = system: NCI-H23 lung
NCI-H522 lung = system: NCI-H522 lung
NCI/ADR-RES ovarian = system: NCI/ADR-RES ovarian
OVCAR-3 ovarian = system: OVCAR-3 ovarian
OVCAR-4 ovarian = system: OVCAR-4 ovarian
OVCAR-5 ovarian = system: OVCAR-5 ovarian
OVCAR-8 ovarian = system: OVCAR-8 ovarian
PC-3 prostate = system: PC-3 prostate
RPMI-8226 leukemia = system: RPMI-8226 leukemia
RXF 393 renal = system: RXF 393 renal
SF-268 CNS = system: SF-268 CNS
SF-295 CNS = system: SF-295 CNS
SK-MEL-2 melanoma = system: SK-MEL-2 melanoma
SK-MEL-28 melanoma = system: SK-MEL-28 melanoma
SK-MEL-5 melanoma = system: SK-MEL-5 melanoma
SK-OV-3 ovarian = system: SK-OV-3 ovarian
SN12C renal = system: SN12C renal
SNB-19 CNS = system: SNB-19 CNS
SNB-75 CNS = system: SNB-75 CNS
SR leukemia = system: SR leukemia
SW-620 colon = system: SW-620 colon
T-47D breast = system: T-47D breast
TK-10 renal = system: TK-10 renal
U251 CNS = system: U251 CNS
UACC-257 melanoma = system: UACC-257 melanoma
UACC-62 melanoma = system: UACC-62 melanoma
UO-31 renal = system: UO-31 renal

Measured: TGI

O=S(=O)(O)c1ccc(N=Nc2c(O)ccc3cc(Br)ccc23)cc1
> 100 µM: 786-0 renal | A498 renal | A549 NSCLC | ACHN renal | BT-549 breast | CAKI-1 renal | CCRF-CEM leukemia | COLO 205 colon | DU-145 prostate | EKVX NSCLC | HCT-116 colon | HCT-15 colon | HOP-62 NSCLC | HOP-92 NSCLC | HS 578T breast | HT29 colon | IGROV1 ovarian | KM12 colon | LOX IMVI melanoma | M14 melanoma | MALME-3M melanoma | MDA-MB-231 breast | MDA-MB-435 | MDA-N | MOLT-4 leukemia | NCI-H23 lung | NCI-H522 lung | NCI/ADR-RES ovarian | OVCAR-3 ovarian | OVCAR-4 ovarian | OVCAR-5 ovarian | OVCAR-8 ovarian | PC-3 prostate | RPMI-8226 leukemia | RXF 393 renal | SF-268 CNS | SF-295 CNS | SK-MEL-2 melanoma | SK-MEL-28 melanoma | SK-MEL-5 melanoma | SK-OV-3 ovarian | SN12C renal | SNB-19 CNS | SNB-75 CNS | SR leukemia | SW-620 colon | T-47D breast | TK-10 renal | U251 CNS | UACC-257 melanoma | UACC-62 melanoma | UO-31 renal
